Assay results taken from patent publication US4593090A, “Novel nitrosourea compounds, method for preparing same, and pharmaceutical composition containing same” (Gogo Kimura, priority 1981, dated 1986).
Like-named read-outs stand apart in the source and are kept apart here.

Key:
Leukemia L1210 = experiment: Activity against Leukemia L1210, intraperitoneal, increase in life span of mice; assay type: in vivo, female mice (BDF1 family); settings: for ED (maximum ILS) / ED30: Mus musculus, L1210, ip, ip once a day for 5 successive days; for ED (maximum ILS): daily dosage giving maximum increase of life span, read-out: O.D. (optimum dosage); for ED30: daily dosage increasing average survival days by 30%, read-out: ILS30; for Survivors after 60 days / Max. ILS % / Therapeutic ratio TR: ip; for Survivors after 60 days: 6-membered group; for Max. ILS %: 60-day observation, versus control; for Therapeutic ratio TR: O.D./ILS30
Summary of the method: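 L1210 cells (1×10^5) into abdominal cavity of female BDF1 mice, 20–23 g, n=6/group. Dosing 24 h post-implant, ip or po, qd ×5. 60-day observation; ILS% = mean survival vs untreated control; T.R. = O.D./ILS 30.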

Ehrlich acites carcinoma = experiment: Growth-inhibiting effect against Ehrlich acites carcinoma; assay type: in vivo, male mice; settings: Mus musculus, Ehrlich, 120 h, 5 days; for response vs control in vivo at 50 mg/kg: 50 mg/kg/day ip; for response vs control in vivo at 200 mg/kg: 200 mg/kg/day ip; for response vs control in vivo at 25 mg/kg: 25 mg/kg/day ip; for response vs control in vivo at 100 mg/kg: 100 mg/kg/day ip
Experimental: Ehrlich acites carcinoma (1×10^7 cells) was implantated into the abdominal cavities of a 6-membered group of male mice. Test compounds (solutions or suspensions in 1% Nikohl HCO-60) were each intraperioneally administered once a day 5 successive days to the mice 24 hrs. after the implantation. Total packed cell volumes [TPCV, namely, total packed volumes of Acites carcinoma] were determined 7 days after the implantation to calculate growth ratio of tumor [T/C%; T: packed volume of Acites carcinoma in treated groups, C: packed volume of Acites carcinoma in an untreated group]. Acitivity is represented by - when T/C% is 100-66, by + when T/C% 65-41, by ++ when T/C% 40-11, and by +++ when T/C% 10-0.

[1] = Acute toxicity (LD50, Behrens-Karber method); assay type: in vivo, ICR mice; settings: mouse, in vivo, ip, mortality during 30 days
Experimental: Test compounds, dissolved or suspended in 0.5% aqueous CMC, were each intraperitoneally administered to ICR mice in a dose of 0.1 ml per 10 g body weight. LD50 (mg/kg) value of each test compound was calculated from the mortality of mice during 30 days by the Behrens-Karber method.

Compound	ED (maximum ILS) (Leukemia L1210) [mg/kg]	ED30 (Leukemia L1210) [mg/kg]	Survivors after 60 days (Leukemia L1210)	Max. ILS % (Leukemia L1210) [%]	Therapeutic ratio TR (Leukemia L1210)	response vs control in vivo at 50 mg/kg (Ehrlich acites carcinoma; read-out: Activity) [%]	response vs control in vivo at 50 mg/kg (Ehrlich acites carcinoma; read-out: T/C %) [%]	response vs control in vivo at 200 mg/kg (Ehrlich acites carcinoma; read-out: Activity) [%]	response vs control in vivo at 200 mg/kg (Ehrlich acites carcinoma; read-out: T/C %) [%]	LD50 at 720 h [1] [mg/kg]	response vs control in vivo at 25 mg/kg (Ehrlich acites carcinoma; read-out: Activity) [%]	response vs control in vivo at 25 mg/kg (Ehrlich acites carcinoma; read-out: T/C %) [%]	response vs control in vivo at 100 mg/kg (Ehrlich acites carcinoma; read-out: Activity) [%]	response vs control in vivo at 100 mg/kg (Ehrlich acites carcinoma; read-out: T/C %) [%]
CCN(C[C@H]1O[C@H](OCC(C)C)[C@H](O)[C@@H](O)[C@H]1O)C(=O)N(CCCl)N=O [Compound 108, 3-ethyl-3-(isobutyl α-D-galactopyranose-6-yl)-1-(2-chloroethyl)-1-nitrosourea]	130	4.24	3/6	> 320	30.7	0 to 10	7.8	0 to 10	0	390				
CC(C)(C)N(C[C@H]1O[C@H](OCC2CCCO2)[C@H](O)[C@@H](O)[C@@H]1O)C(=O)N(CCCl)N=O (stereo partly drawn) [Compound 193, 3-tert-butyl-3-(tetrahydrofurfuryl α-D-glucopyranose-6-yl)-1-(2-chloroethyl)-1-nitrosourea]	160	2.52	6/6	> 700	63.4					550	0 to 10	0	0 to 10	0
COCCCO[C@H]1O[C@H](CN(C(=O)N(CCCl)N=O)C(C)(C)C)[C@@H](O)[C@H](O)[C@H]1O [Compound 179, 3-tert-butyl-3-(3-methoxy-n-propyl α-D-glucopyranose-6-yl)-1-(2-chloroethyl)-1-nitrosourea]	180	2.79	6/6	> 700	64.4					560	0 to 10	0	0 to 10	0
COCCCO[C@H]1O[C@H](CN(CC(C)C)C(=O)N(CCCl)N=O)[C@@H](O)[C@H](O)[C@H]1O [Compound 31]	170	2.65	6/6	> 700	64.2					505	0 to 10	0	0 to 10	0
COCC(C)N(C(=O)N(CCCl)N=O)[C@H]1[C@@H](OCC(C)C)O[C@H](CO)[C@H](O)[C@@H]1O (stereo partly drawn) [Compound 124, 3-(1-methyl-2-methoxyethyl)-3-(isobutyl α-D-galactopyranose-2-yl)-1-(2-chloroethyl)-1-nitrosourea]	210	5.3	3/6	> 360	39.6					745	0 to 10	0	0 to 10	0
COC(C)CN(C[C@H]1O[C@H](OC2CCCCC2)[C@H](O)[C@@H](O)[C@@H]1O)C(=O)N(CCCl)N=O (stereo partly drawn) [Compound 41, 3-(2-methoxy-n-propyl)-3-(cyclohexyl α-D-glucopyranose-6-yl)-1-(2-chloroethyl)-1-nitrosourea]	180	2.72	6/6	> 700	66.2					580	0 to 10	0	0 to 10	0
CCCCOC1OC(CO)C(O)C(N(CCCOC)C(=O)N(CCCl)N=O)C1O [Compound 82, 3-(3-methoxy-n-propyl)-3-(n-butyl α-D-glucopyranose-3-yl)-1-(2-chloroethyl)-1-nitrosourea]	200	5.5	3/6	> 345	30.4					655	0 to 10	0	0 to 10	0
COCCCN(C[C@H]1O[C@H](OCC(C)C)[C@@H](O)[C@@H](O)[C@H]1O)C(=O)N(CCCl)N=O [Compound 146, 3-(3-methoxy-n-propyl)-3-(isobutyl α-D-talopyranose-6-yl)-1-(2-chloroethyl)-1-nitrosourea]	180	3.19	5/6	> 620	56.4					595	0 to 10	0	0 to 10	0
CCOCCN(C[C@H]1O[C@H](OCC(C)C)[C@H](O)[C@@H](O)[C@H]1O)C(=O)N(CCCl)N=O [Compound 109, 3-(2-ethoxyethyl)-3-(isobutyl α-D-galactopyranose-6-yl)-1-(2-chloroethyl)-1-nitrosourea]	200	3.74	4/6	> 430	53.5					655	0 to 10	0	0 to 10	0
COCC(C)N(C(=O)N(CCCl)N=O)C1C(CO)OC(OCC(C)C)C(O)C1O [Compound 94, 3-(1-methyl-2-methoxyethyl)-3-(isobutyl α-D-glucopyranose-4-yl)-1-(2-chloroethyl)-1-nitrosourea]	160	4.43	3/6	> 360	36.1					520	0 to 10	0	0 to 10	0
CCC(C)O[C@H]1O[C@H](CN(C(=O)N(CCCl)N=O)C(C)CO)[C@@H](O)[C@H](O)[C@H]1O (stereo partly drawn) [Compound 20, 3-(2-hydroxy-1-methylethyl)-3-(sec-butyl α-D-glucopyranose-6-yl)-1-(2-chloroethyl)-1-nitrosourea]	170	3.92	4/6	> 430	43.4					560	0 to 10	0	0 to 10	0
CCCCO[C@H]1O[C@H](CN(CCOCCO)C(=O)N(CCCl)N=O)[C@@H](O)[C@H](O)[C@H]1O [Compound 12, 3-[2-(2-hydroxyethoxy)ethyl]-3-(n-butyl α-D-glucopyranose-6-yl)-1-(2-chloroethyl)-1-nitrosourea]	170	2.85	6/6	> 700	59.6					505	0 to 10	0	0 to 10	0
